US20240148820A1 (priority 2021, published 2024)
Where no end group is shown, it is not given here.

Biological target: S protein of SARS-CoV-2 (Severe acute respiratory syndrome coronavirus 2, UniProt P0DTC2)
Type: binding

Which “effect of U5 on P9R binding to S protein” value does the source give for IPLRGAFINGRWDSQCHRFS [U5] here?
The value was “not P9R binding to S protein”.
